From paper PMC9490236, “Accurate de novo design of membrane-traversing macrocycles” (Cell, 2022)
Several values for one entry are separate records, joined by “and”; a condition that tells them apart may be missing. Equal entries are not always repeated. Where two headings read alike, the source gives them in different places. Where a SMILES comes first, the peptide text is derived from it. [ ]: non-standard residue; d: D form. dNMeI = CC[C@@H](C)[C@@H](NC)C(=O)O; NMeL = CN[C@@H](CC(C)C)C(=O)O

Assay: Pharmacokinetics and oral bioavailability of D11.3 in male Swiss albino mice (IV, PO, SQ)
Type: in vivo
Conditions: for MRT last: read-out: MRT0-last
Protocol: In vivo bioavailability assays were conducted in mice and rats. D8.3.p1 and D10.1 were studied in female Balb/C mice by van Voorhis group at University of Washington. D11.2 was evaluated in Sprague Dawley (SD) rats by Robert Griffin’s group at Takeda Pharmaceuticals. D11.3 was studied in the male swiss albino mice by the contract research organization, GVK Biosciences Pvt. Ltd., Hyderabad, India. All animals used in these studies were handled in strict accordance with practices made to minimize suffering. All animal experiments conducted at the University of Washington, USA, and Takeda Pharmaceuticals, USA were approved by the Institutional Animal Care and Use Committee. Animal studies at GVK Biosciences were reviewed and approved by the Institutional Animal Ethics Committee of GVK Biosciences.
We selected four designed macrocycles with diverse structures and in vitro rates of permeability for in vivo oral bioavailability studies in the rodent models. Due to the intensive resource requirements for such studies, these studies were conducted by three different research groups. D8.3.p1 and D10.1 were studied in female Balb/C mice by van Voorhis group at University of Washington. D11.2 was evaluated in Sprague Dawley (SD) rats by Robert Griffin’s group at Takeda Pharmaceuticals. D11.3 was studied in the male swiss albino mice by the contract research organization, GVK Biosciences Pvt. Ltd., Hyderabad, India.
Pharmacokinetic properties of D11.3 were evaluated by the contract research organization, GVK Bio in Swiss Albino male mice after dosing the peptides through oral gavage (PO), subcutaneous (SQ), and intravenous (IV) routes. Plasma samples were collected at multiple time points up to 24 hours. Animals were dosed with 27 gauge needle through tail vein for IV, gastric gavage needle for PO, and 27 gauge needle on dorsal side for SQ. Plasma concentrations were determined using LC-MS/MS based quantification. Pharmacokinetic parameters were determined using non-compartmental analysis with Phoenix software version 8.1.
Dosing vehicle: DMSO (10%) + 10% solutol in PBS (90%) (IV, PO, SQ)
Dose volume: […] (PO, SQ); […] (IV)
Dose: 10 mg/kg (PO) 1 mg/kg (IV), 5mg/kg (SQ)

[1] = male, Swiss albino, mouse, plasma, IV 1.00 mg/kg
[2] = male, Swiss albino, mouse, plasma, PO 10.00 mg/kg
[3] = male, Swiss albino, mouse, plasma, SC 5.00 mg/kg

Compound: CC[C@@H](C)[C@H]1NC(=O)[C@H]([C@@H](C)CC)NC(=O)[C@H](CC(C)C)N(C)C(=O)[C@H]2CCCN2C(=O)[C@@H]([C@H](C)CC)NC(=O)[C@@H]([C@H](C)CC)N(C)C(=O)[C@H](CC(C)C)NC(=O)[C@H]2CCCN2C(=O)[C@@H]2CCCN2C(=O)[C@H](C(C)C)NC(=O)[C@H]2CCCN2C1=O [Design D11.3, VAL PRO DPRO LEU *DILE DILE DPRO *LEU ILE DILE DPRO] (cyclo(I[dI][dP]VP[dP]L[dNMeI][dI][dP][NMeL]))
- AUCExtra (IV 1.00 mg/kg): 3.09%
- Plasma concentration (IV 1.00 mg/kg, 0.25 h, individual mice M1, M2, M3, 1 mg/kg): 3305.02 ng/mL and 3779.15 ng/mL and 2973.54 ng/mL
- Plasma concentration (IV 1.00 mg/kg, 1 h, individual mice M1, M2, M3, 1 mg/kg): 931.71 ng/mL and 1218.22 ng/mL and 1283.47 ng/mL
- Plasma concentration (IV 1.00 mg/kg, 3 h, individual mice M1, M2, M3, 1 mg/kg): 887.86 ng/mL and 328.77 ng/mL and 318.62 ng/mL
- Plasma concentration (IV 1.00 mg/kg, 5 h, individual mice M1, M2, M3, 1 mg/kg): 240.02 ng/mL and 271.55 ng/mL and 289.17 ng/mL
- Plasma concentration (IV 1.00 mg/kg, 8 h, individual mice M1, M2, M3, 1 mg/kg): 399.46 ng/mL and 124.26 ng/mL and 182.53 ng/mL
- Plasma concentration (IV 1.00 mg/kg, 24 h, individual mice M1, M2, M3, 1 mg/kg): 17.65 ng/mL and 30.97 ng/mL and 34.16 ng/mL
- health of animals during the study (IV 1 mg/kg, PO 10 mg/kg, SQ 5 mg/kg): healthy throughout the duration of the study
- AUCExtra (PO 10.00 mg/kg): 1.91%
- Plasma concentration (PO 10.00 mg/kg, 0.08 h, individual mice M1, M2, M3, 10 mg/kg): 47.49 ng/mL and 76.49 ng/mL and 84.94 ng/mL
- Plasma concentration (PO 10.00 mg/kg, 0.25 h, individual mice M1, M2, M3, 10 mg/kg): 454 ng/mL and 804.64 ng/mL and 992.29 ng/mL
- Plasma concentration (PO 10.00 mg/kg, 0.5 h, individual mice M1, M2, M3, 10 mg/kg): 2858.02 ng/mL and 2832.99 ng/mL and 1880.71 ng/mL
- Plasma concentration (PO 10.00 mg/kg, 1 h, individual mice M1, M2, M3, 10 mg/kg): 2950.38 ng/mL and 3417.67 ng/mL and 2525.44 ng/mL
- Plasma concentration (PO 10.00 mg/kg, 3 h, individual mice M1, M2, M3, 10 mg/kg): 3249.94 ng/mL and 3660.57 ng/mL and 3578.88 ng/mL
- Plasma concentration (PO 10.00 mg/kg, 5 h, individual mice M1, M2, M3, 10 mg/kg): 3313.72 ng/mL and 2427.94 ng/mL and 1866.9 ng/mL
- Plasma concentration (PO 10.00 mg/kg, 8 h, individual mice M1, M2, M3, 10 mg/kg): 1232.5 ng/mL and 1764.28 ng/mL and 1439.78 ng/mL
- Plasma concentration (PO 10.00 mg/kg, 24 h, individual mice M1, M2, M3, 10 mg/kg): 177.35 ng/mL and 48.47 ng/mL and 59.29 ng/mL
- AUCExtra (SC 5.00 mg/kg): 30.33%
- Plasma concentration (SC 5.00 mg/kg, 0.08 h, Mean): 10.15 ng/mL
- Plasma concentration (SC 5.00 mg/kg, 0.25 h, Mean): 35.04 ng/mL
- Plasma concentration (SC 5.00 mg/kg, 0.5 h, Mean): 38.67 ng/mL
- Plasma concentration (SC 5.00 mg/kg, 0.5 h, individual mice M1, M2, M3, 5 mg/kg): 23.29 ng/mL and 70.26 ng/mL and 22.46 ng/mL
- Plasma concentration (SC 5.00 mg/kg, 1 h, individual mice M1, M2, M3, 5 mg/kg): 52.72 ng/mL and 45.05 ng/mL and 34.59 ng/mL
- Plasma concentration (SC 5.00 mg/kg, 3 h, individual mice M1, M2, M3, 5 mg/kg): 141.22 ng/mL and 103.85 ng/mL and 139.25 ng/mL
- Plasma concentration (SC 5.00 mg/kg, 24 h, Mean): 50.51 ng/mL
- level at 0.08 h (male, Swiss Albino, mouse, plasma, iv, 1 mg/kg, IV 1.00 mg/kg, 0.08 h, individual mice M1, M2, M3, read-out: Plasma concentration): 3320 ng/mL
- level at 0.5 h (male, Swiss Albino, mouse, plasma, iv, 1 mg/kg, IV 1.00 mg/kg, 0.5 h, individual mice M1, M2, M3, read-out: Plasma concentration): 2570 ng/mL
- level at 5 h (male, Swiss albino, mouse, plasma, sc, 5 mg/kg, SC 5.00 mg/kg, 5 h, individual mice M1, M2, M3, read-out: Plasma concentration): 117 ng/mL
- level at 8 h (male, Swiss albino, mouse, plasma, sc, 5 mg/kg, SC 5.00 mg/kg, 8 h, individual mice M1, M2, M3, read-out: Plasma concentration): 153 ng/mL
- AUC(0-inf) [1]: 7190 ng·h/mL
- AUC(0-t) [1]: 6970 ng·h/mL
- C0 [1]: 3960 ng/mL
- Vd [1]: 1.12 L/kg
- clearance [1]: 2.32 mL/min/kg
- AUC(0-inf) [2]: 28800 ng·h/mL
- AUC(0-t) [2]: 28200 ng·h/mL
- Cmax [2]: 3500 ng/mL
- Tmax [2]: 3 h
- bioavailability (male, Swiss albino, mouse, plasma, PO 10.00 mg/kg vs IV 1.00 mg/kg, read-out: F (oral bioavailability)): 40% and 40.1%
- AUC(0-inf) [3]: 3050 ng·h/mL
- AUC(0-t) [3]: 2120 ng·h/mL
- Cmax [3]: 148 ng/mL
- Tmax [3]: 5 h
- half-life (mouse, in vivo, IV 1.00 mg/kg): 5.58 h
- MRT last (mouse, in vivo, IV 1.00 mg/kg): 4.64 h
- MRT last (mouse, in vivo, PO 10.00 mg/kg): 6.32 h
- MRT last (mouse, in vivo, SC 5.00 mg/kg): 10.7 h
